Experiment [1] concerns genotype A, "Long" strain RSV. Nature of the experiment: RSV-A assay (CPE protection in Hep-2 cells, ATPlite readout). The experiment is classed as cell-based, Human respiratory syncytial virus (HRSV). The following applies: human respiratory syncytial virus, genotype A “Long” strain RSV, MOI 0.1, CPE protection, read-out: Human RSV-A (“Long”). In short, it runs like this: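 Hep-2 cells (8,000/well) infected with RSV Long strain at MOI 0.1 in the presence of 2-fold compound dilutions in duplicate. After 5 days, cell viability measured by ATPlite luminescence, normalized between virus-only and uninfected cell controls; EC50 reported.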

In experiment [2] the test system is HMPV clinical isolate TN/1501/A1. The experiment is described as follows: HMPV antiviral assay Method-B (clinical isolate TN/1501/A1 in LLC-MK2 cells, ATP-Lite readout). The format is cell-based, Human metapneumovirus (HMPV). The following applies: human metapneumovirus, LLC-MK2, 144 h, hMPV WT1501 (clinical isolate TN/1501/A1), 6 days. As to the method: In vitro HMPV antiviral activity was evaluated using the clinical isolate TN/1501/A1 and LLC-MK2 cells (ATCC #CCL-7), an immortalized kidney epithelial cell line from Macaca mulatta. Compounds were resuspended in dimethyl sulfoxide (DMSO) at 10 mM and added to a 384-well source plate. The compounds were diluted and transferred onto 384-well assay plates using the Echo-650 automated liquid handling system (Beckman Coulter, Indiana). The test compounds were assessed in duplicate at a top concentration of 10 μM followed by 3-fold serial dilutions to give a total of 10 concentration points. DMSO control wells were also included on the assay plates and were either infected or not, acting as positive and negative controls. TN/1501/A1 virus infections were performed in-suspension with LLC-MK2 cells. The cells were washed twice with PBS and removed from the cell-culture flask with 0.25% trypsin-EDTA (Thermo Fisher Scientific, MA). The trypsin-EDTA was inactivated by resuspending in 2% fetal bovine serum (FBS) and OptiMEM (ThermoFisher Scientific, MA) containing 1% penicillin-streptomycin. Cells were pelleted by centrifuging for 5 minutes at 800 rpm, the supernatant was removed, and cells were suspended in PBS plus 100 μg/mL CaCl2). This step was performed twice. Cells were then resuspended in serum-free (SF)-OptiMEM containing 4 μg/mL TPCK-Trypsin (Sigma Aldrich, MO), 1% penicillin-streptomycin (ThermoFisher Scientific, MA) and 100 μg/mL CaCl2). Cells were counted and seeded at a density of 5,000 cells/well, 12.5 μL/well. Virus infections were done at a multiplicity of infection (MOI) of 0.014 with 12.5 μL added per well. SF-OptiMEM, 12.5 μL/well, was added to the appropriate wells to serve as a virus-free negative control for the assay. The final concentration of TPCK-trypsin was 2 μg/mL. Plates were incubated at 37° C., 5% CO2 for 6 days. After 6 days incubation, 12.5 μL of ATP-Lite (PerkinElmer, MA) was added to each well and the raw luminescence values were determined using the Envision 2104 (Perkin Elmer, MA). The average of the raw luminescence values for the cells and virus only positive control wells was subtracted from all conditions tested and the percent cell health was determined by dividing these values by the average of the cells only negative control wells. EC50 values were then calculated by non-linear regression using a four-parameter curve logistic equation. The curve fit model employed was XLFit Dose Response One Site Model 200: y=(A+(B/(1+((x/C)^D)))), where A is the minimum y value, B is the maximum y value, C is the log EC50 value, and D is the slope factor. […] EC50 ranges are as follows: A<0.5 μM; B>0.5 μM.

Among the data in patent US12612412B2, “Antiviral heterocyclic compounds” (Enanta Pharmaceuticals, Inc., priority 2021, dated 2026) are EC50 values, retold here.

Take `Cc1nn(-c2ccccc2)cc1C(=O)NC[C@](O)(c1cc2c(c(-c3ccc(F)cc3)n1)OC[C@]2(C)C(N)=O)C1CC1` [Example 486]: the results for the EC50 in experiment [1] and in experiment [2] were less than 0.2 µM and more than 0.5 µM, respectively.

On to `Cc1nc2c(Cl)cc(C(=O)NC[C@](O)(c3cc4c(c(-c5ccc(F)cc5)n3)OC[C@]4(C)C(N)=O)C(F)(F)F)cc2[nH]1` [Example 487], for which the EC50 is less than 0.2 µM in experiment [1] and more than 0.5 µM in experiment [2]. On the same counts, the results for `C[C@]1(C(N)=O)COc2c1cc([C@@](O)(CNC(=O)c1ccnc3cc[nH]c13)C(F)(F)F)nc2-c1ccc(F)cc1` [Example 488] are less than 0.2 µM and more than 0.5 µM. On the same counts, the results for `C[C@]1(C(N)=O)COc2c1cc([C@@](O)(CNC(=O)c1ccnc3nccn13)C(F)(F)F)nc2-c1ccc(F)cc1` [Example 489] are more than 0.2 µM and more than 0.5 µM.

In the case of `C[C@]1(C(N)=O)COc2c1cc([C@@](O)(CNC(=O)c1cc(OC3CC3)n3nc(C4CC4)cc3c1)C1CC1)nc2-c1ccc(F)c(Cl)c1` [Example 491], the EC50 is less than 0.2 µM in experiment [1] and less than 0.5 µM in experiment [2]. On the same counts, the results for `Cc1cnc2c(OC(F)F)cc(C(=O)NC[C@](O)(c3cc4c(c(-c5ccc(F)cc5)n3)OC[C@]4(C)C(N)=O)C(F)(F)F)cc2c1` [Example 493] are less than 0.2 µM and less than 0.5 µM.

For `Cc1cnc2c(OC(F)F)cc(C(=O)NC[C@](O)(c3cc4c(c(-c5ccc(F)c(Cl)c5)n3)OC[C@]4(C)C(N)=O)C(F)(F)F)cc2c1` [Example 494], the EC50 in experiment [1] was less than 0.2 µM; in experiment [2], less than 0.5 µM. On the same counts, the results for `Cc1cnc2c(OC(F)F)cc(C(=O)NC[C@](O)(c3cc4c(c(-c5ccc(F)cc5)n3)OC[C@]4(C)C(N)=O)C3CC3)cc2c1` [Example 495] are less than 0.2 µM and less than 0.5 µM. On the same counts, the results for `Cc1cnc2c(OC(F)F)cc(C(=O)NC[C@](O)(c3cc4c(c(-c5ccc(F)c(Cl)c5)n3)OC[C@]4(C)C(N)=O)C3CC3)cc2c1` [Example 496] are less than 0.2 µM and less than 0.5 µM. On the same counts, the results for `Cc1cnc2c(OCC(F)F)cc(C(=O)NC[C@](O)(c3cc4c(c(-c5ccc(F)c(Cl)c5)n3)OC[C@]4(C)C(N)=O)C(F)(F)F)cc2c1` [Example 497] are less than 0.2 µM and less than 0.5 µM. Turning to `Cc1cnc2c(OCC(F)F)cc(C(=O)NC[C@](O)(c3cc4c(c(-c5ccc(F)cc5)n3)OC[C@]4(C)C(N)=O)C3CC3)cc2c1` [Example 498], the EC50 was less than 0.2 µM in experiment [1] and less than 0.5 µM in experiment [2].

`Cc1cnc2c(OCC(F)F)cc(C(=O)NC[C@](O)(c3cc4c(c(-c5ccc(F)c(Cl)c5)n3)OC[C@]4(C)C(N)=O)C3CC3)cc2c1` [Example 499]: the EC50 was less than 0.2 µM in experiment [1] and less than 0.5 µM in experiment [2]. On the same counts, the results for `Cc1nc2c(Cl)cc(C(=O)NC[C@](O)(c3cc4c(c(-c5ccc(F)c(Cl)c5)n3)OC[C@]4(C)C(N)=O)C3CC3)cc2cc1Cl` [Example 500] are less than 0.2 µM and less than 0.5 µM. On the same counts, the results for `Cc1cnc2c(OC(F)(F)F)cc(C(=O)NC[C@](O)(c3cc4c(c(-c5ccc(F)cc5)n3)OC[C@]4(C)C(N)=O)C(F)(F)F)cc2c1` [Example 501] are less than 0.2 µM and more than 0.5 µM. On the same counts, the results for `Cc1cnc2c(OC(F)(F)F)cc(C(=O)NC[C@](O)(c3cc4c(c(-c5ccc(F)cc5)n3)OC[C@]4(C)C(N)=O)C3CC3)cc2c1` [Example 502] are less than 0.2 µM and less than 0.5 µM. As for `Cc1cnc2c(OC(F)(F)F)cc(C(=O)NC[C@](O)(c3cc4c(c(-c5ccc(F)c(Cl)c5)n3)OC[C@]4(C)C(N)=O)C3CC3)cc2c1` [Example 503], the results for the EC50 in experiment [1] and in experiment [2] were less than 0.2 µM and less than 0.5 µM, respectively. For the compound `COc1cc(C(=O)NC[C@](O)(c2cc3c(c(-c4ccc(F)cc4)n2)OC[C@]3(C)C(N)=O)C(F)(F)F)cc2cc(Br)c(C)nc12` [Example 769], the EC50 in experiment [2] is less than 0.5 µM.

For the compound `COc1cc(C(=O)NC[C@](O)(c2cc3c(c(-c4ccc5c(c4)OC(F)(F)O5)n2)OC[C@]3(C)C(N)=O)C(F)(F)F)cc2cc(Br)c(C)nc12` [Example 770], the EC50 in experiment [2] is less than 0.5 µM. The same measure, in the same setting: the figure for `COc1cc(C(=O)NC[C@](O)(c2cc3c(c(-c4ccc(F)cc4)n2)OC[C@]3(C)C(N)=O)C2CC2)cc2cc(Br)c(C)nc12` [Example 771] is less than 0.5 µM; for `COc1cc(C(=O)NC[C@](O)(c2cc3c(c(-c4ccc(F)cc4)n2)OC[C@]3(C)C(N)=O)C2(F)CC2)cc2cc(Br)c(C)nc12` [Example 772] it is less than 0.5 µM.

Take `COc1cc(C(=O)NC[C@](O)(c2cc3c(c(-c4ccc(F)c(Br)c4F)n2)OC[C@]3(C)C(N)=O)C2CC2)cc2cc(Br)cnc12` [Example 803]: the EC50 in experiment [2] is less than 0.5 µM.

On to `COc1cc(C(=O)NC[C@](O)(c2cc3c(c(-c4ccc(F)c(Br)c4F)n2)OC[C@]3(C)C(N)=O)C2CC2)cc2cc(Cl)c(C)nc12` [Example 804], for which, in experiment [2], the EC50 was less than 0.5 µM.

In experiment [2], `COc1cc(C(=O)NC[C@](O)(c2nc(-c3ccc4c(c3)OC(F)(F)O4)c3c(c2F)[C@](C)(C(N)=O)CO3)C2CC2)cc2cn(C3CC3)nc12` [Example 863] gave an EC50 of more than 0.5 µM.

On to `C[C@@]1(C(N)=O)COc2c(-c3ccc4c(c3)OC(F)(F)O4)nc([C@@](O)(CNC(=O)c3cc(Cl)c4nn(C5CC5)cc4c3)C3CC3)c(F)c21` [Example 864], for which the EC50 in experiment [2] is more than 0.5 µM.

Take `COc1cc(C(=O)NC[C@](O)(c2nc(-c3ccc4c(c3)OC(F)(F)O4)c3c(c2F)[C@](C)(C(N)=O)CO3)C2CC2)cc2cn(C3(F)CC3)nc12` [Example 865]: the EC50 in experiment [2] is more than 0.5 µM. The same measure, in the same setting: the same measure for `COc1cc(C(=O)NC[C@](O)(c2nc(-c3ccc4c(c3)OC(F)(F)O4)c3c(c2F)[C@](C)(C(N)=O)CO3)C2CC2)cc2cn(C(F)F)nc12` [Example 866]: more than 0.5 µM.

`COc1cc(C(=O)NC[C@](O)(c2nc(-c3ccc4c(c3)OC(F)(F)O4)c3c(c2F)[C@](C)(C(N)=O)CO3)C2CC2)cc2cc(Cl)c(C)nc12` [Example 867] came in with an EC50 in experiment [2] of more than 0.5 µM. Same read-out and setting: the same measure for `COc1cc(C(=O)NC[C@](O)(c2nc(-c3cc(Cl)c(F)cc3F)c3c(c2F)[C@](C)(C(N)=O)CO3)C2CC2)cc2cn(C3CC3)nc12` [Example 868]: more than 0.5 µM; for `COc1cc(C(=O)NC[C@](O)(c2nc(-c3ccc4c(c3)OC(F)(F)O4)c3c(c2F)[C@@](C)(C(N)=O)CO3)C2CC2)cc2cc(Br)cnc12` [Example 869]: less than 0.5 µM; for `COc1cc(C(=O)NC[C@](O)(c2nc(-c3ccc4c(c3)OC(F)(F)O4)c3c(c2F)[C@](C)(C(N)=O)CO3)C2CC2)cc2cc(Br)cnc12` [Example 870]: more than 0.5 µM. `COc1cc(C(=O)NC[C@@](O)(c2cc3c(c(-c4cc(Br)c(F)cc4F)n2)OC[C@]3(C)C(N)=O)C(F)(F)F)cc2cn(C3CC3)nc12` [Example 957]: the EC50 in experiment [2] was less than 0.5 µM. Turning to `COc1cc(C(=O)NC[C@](O)(c2cc3c(c(-c4cc(Br)c(F)cc4F)n2)OC[C@]3(C)C(N)=O)C(F)(F)F)cc2cn(C3CC3)nc12` [Example 958], the EC50 in experiment [2] was less than 0.5 µM. With `COc1cc(C(=O)NC[C@@](O)(c2cc3c(c(-c4cccc(Br)c4F)n2)OC[C@]3(C)C(N)=O)C(F)(F)F)cc2cn(C3CC3)nc12` [Example 959], in experiment [2], the EC50 was more than 0.5 µM. In experiment [2], `COc1cc(C(=O)NC[C@](O)(c2cc3c(c(-c4cccc(Br)c4F)n2)OC[C@]3(C)C(N)=O)C(F)(F)F)cc2cn(C3CC3)nc12` [Example 960] yielded an EC50 of less than 0.5 µM. `COc1cc(F)c(-c2nc([C@@](O)(CNC(=O)c3cc(OC)c4nn(C5CC5)cc4c3)C(F)(F)F)cc3c2OC[C@]3(C)C(N)=O)c(F)c1` [Example 962] had an EC50 in experiment [2] of less than 0.5 µM. Still for that read-out and setting: the figure for `COc1cc(C(=O)NC[C@](O)(c2cc3c(c(-c4c(F)ccc(Cl)c4F)n2)OC[C@]3(C)C(N)=O)C(F)(F)F)cc2cn(C3CC3)nc12` [Example 963] is less than 0.5 µM; for `COc1cc(C(=O)NC[C@](O)(c2cc3c(c(-c4c(F)ccc(F)c4F)n2)OC[C@]3(C)C(N)=O)C(F)(F)F)cc2cn(C3CC3)nc12` [Example 964] it is less than 0.5 µM.
